In PubChem BioAssay (NCI):
“And” between values parts separate entries of the source, which are not always exact repeats. Identical values can stand only once.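 A five-concentration, 48-hour dose response in 96-well plates underlies each endpoint, interpolated linearly between surrounding concentrations. GI50 marks 50% less growth. TGI marks complete inhibition of growth.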

How the values were obtained:
Experiment in all cases: NCI anticancer screen, dose series, 48 h
MDA-MB-231 breast = tested on: MDA-MB-231 breast
SK-MEL-2 melanoma = tested on: SK-MEL-2 melanoma
DU-145 prostate = tested on: DU-145 prostate
NCI-H226 lung = tested on: NCI-H226 lung
MALME-3M melanoma = tested on: MALME-3M melanoma
RXF 393 renal = tested on: RXF 393 renal
A549 NSCLC = tested on: A549 NSCLC
HCC-2998 colon = tested on: HCC-2998 colon
SW-620 colon = tested on: SW-620 colon
HL-60(TB) leukemia = tested on: HL-60(TB) leukemia

CCN(CC)c1ccc(C(=N)c2ccc(N(CC)CC)cc2)cc1
GI50 (MDA-MB-231 breast): 1.15 µM
TGI (MDA-MB-231 breast): 3.23 µM
GI50 (SK-MEL-2 melanoma): 0.423 µM
TGI (SK-MEL-2 melanoma): 1.52 µM
GI50 (DU-145 prostate): 0.467 µM
TGI (DU-145 prostate): 2.65 µM
GI50 (NCI-H226 lung): 0.669 µM
TGI (NCI-H226 lung): 2.57 µM
GI50 (MALME-3M melanoma): 0.714 µM
TGI (MALME-3M melanoma): 2.48 µM
GI50 (RXF 393 renal): 0.731 µM
TGI (RXF 393 renal): 2.45 µM
GI50 (A549 NSCLC): 0.625 µM
TGI (A549 NSCLC): 5.94 µM
GI50 (HCC-2998 colon): 1.1 µM
TGI (HCC-2998 colon): 3.17 µM
GI50 (SW-620 colon): 0.346 µM
TGI (SW-620 colon): 1.5 µM
GI50 (HL-60(TB) leukemia): 0.276 µM
TGI (HL-60(TB) leukemia): 1.13 µM

Fc1cc(F)c(COc2cc(Cn3cnc4c(Cl)nc(Cl)nc43)ccc2C23CC4CC(CC(C4)C2)C3)cc1F
GI50 (MDA-MB-231 breast): 17.5 µM
TGI (MDA-MB-231 breast): 32.7 µM
GI50 (SK-MEL-2 melanoma): 21 µM
TGI (SK-MEL-2 melanoma): 56.1 µM
GI50 (DU-145 prostate): 17.1 µM
TGI (DU-145 prostate): 30.8 µM
GI50 (NCI-H226 lung): 2.15 µM
TGI (NCI-H226 lung): 4.51 µM
GI50 (MALME-3M melanoma): 1.92 µM
TGI (MALME-3M melanoma): 4.75 µM
GI50 (RXF 393 renal): 15.3 µM
TGI (RXF 393 renal): 29.7 µM
GI50 (A549 NSCLC): 28 µM
TGI (A549 NSCLC): 76.7 µM
GI50 (HCC-2998 colon): 18.7 µM
TGI (HCC-2998 colon): 33.5 µM
GI50 (SW-620 colon): 12.3 µM
TGI (SW-620 colon): 29.3 µM
GI50 (HL-60(TB) leukemia): 1.99 µM
TGI (HL-60(TB) leukemia): 4.58 µM

COc1cc(NC(=O)c2cc(O)c(CC=C(C)C)c(O)c2)cc2c1O[C@]1(C)CC[C@@H](O)C(C)(C)[C@H]1C2
GI50 (MDA-MB-231 breast): 3.56 µM
TGI (MDA-MB-231 breast): 19.8 µM
GI50 (SK-MEL-2 melanoma): 1.33 µM
TGI (SK-MEL-2 melanoma): 15.1 µM
GI50 (DU-145 prostate): 7.49 µM
TGI (DU-145 prostate): 20.5 µM
GI50 (NCI-H226 lung): 11.2 µM
TGI (NCI-H226 lung): 31.7 µM
GI50 (MALME-3M melanoma): 6.24 µM
TGI (MALME-3M melanoma): 24.3 µM
GI50 (RXF 393 renal): 0.434 µM
TGI (RXF 393 renal): 2.34 µM
GI50 (A549 NSCLC): 6.87 µM
TGI (A549 NSCLC): 23.2 µM
GI50 (HCC-2998 colon): 10.6 µM
TGI (HCC-2998 colon): 24.8 µM
GI50 (SW-620 colon): 3.09 µM
TGI (SW-620 colon): 13.8 µM
GI50 (HL-60(TB) leukemia): 1.88 µM
TGI (HL-60(TB) leukemia): 18.7 µM

CCS(=O)(=O)c1ccc(OC)c(Nc2ncc(-c3cccc(OC)c3)o2)c1
GI50 (MDA-MB-231 breast): 8.54 µM
TGI (MDA-MB-231 breast): > 25 µM
GI50 (SK-MEL-2 melanoma): 13.2 µM
TGI (SK-MEL-2 melanoma): > 25 µM
GI50 (DU-145 prostate): 9.99 µM
TGI (DU-145 prostate): > 25 µM
GI50 (NCI-H226 lung): 4.65 µM
TGI (NCI-H226 lung): > 23.6 µM
GI50 (MALME-3M melanoma): > 25 µM
TGI (MALME-3M melanoma): > 25 µM
GI50 (RXF 393 renal): 5.83 µM
TGI (RXF 393 renal): 19.7 µM
GI50 (A549 NSCLC): 8.75 µM
TGI (A549 NSCLC): > 25 µM
GI50 (HCC-2998 colon): 23 µM
TGI (HCC-2998 colon): > 25 µM
GI50 (SW-620 colon): 9.09 µM
TGI (SW-620 colon): > 25 µM
GI50 (HL-60(TB) leukemia): 16.4 µM
TGI (HL-60(TB) leukemia): > 25 µM

CN/N=C(/CCN1CCCC1)CC(c1ccccc1)c1c(O)c2ccccc2oc1=O (stereo not drawn)
TGI (MDA-MB-231 breast): > 100 µM
TGI (SK-MEL-2 melanoma): > 100 µM
TGI (DU-145 prostate): > 100 µM
TGI (NCI-H226 lung): > 100 µM
TGI (MALME-3M melanoma): > 100 µM
TGI (RXF 393 renal): > 100 µM
TGI (A549 NSCLC): > 100 µM
TGI (HCC-2998 colon): > 100 µM
TGI (SW-620 colon): > 100 µM
TGI (HL-60(TB) leukemia): > 100 µM

CCN(CC)c1sc(N(CC)CC)c2c1SSSSS2
GI50 (MDA-MB-231 breast): 0.894 µM
TGI (MDA-MB-231 breast): 2.41 µM
GI50 (SK-MEL-2 melanoma): 3.02 µM
TGI (SK-MEL-2 melanoma): 14.6 µM
GI50 (DU-145 prostate): 1.8 µM
TGI (DU-145 prostate): 3.37 µM
GI50 (NCI-H226 lung): 1.75 µM
TGI (NCI-H226 lung): 3.46 µM
GI50 (MALME-3M melanoma): 1.59 µM
TGI (MALME-3M melanoma): 3.45 µM
GI50 (RXF 393 renal): 1.59 µM
GI50 (A549 NSCLC): 1.84 µM
TGI (A549 NSCLC): 3.64 µM
GI50 (HCC-2998 colon): 0.935 µM
TGI (HCC-2998 colon): 2.4 µM
GI50 (SW-620 colon): 0.132 µM
TGI (SW-620 colon): 1.14 µM
GI50 (HL-60(TB) leukemia): 3.08 µM
TGI (HL-60(TB) leukemia): > 100 µM

CCC1(O)C(=O)OCc2c1cc1n(c2=O)Cc2cc3ccc(C=O)cc3nc2-1 (stereo not drawn)
GI50 (MDA-MB-231 breast): 19.4 µM
TGI (MDA-MB-231 breast): 50 µM and 68.2 µM
GI50 (SK-MEL-2 melanoma): 17.6 µM
TGI (SK-MEL-2 melanoma): 40.6 µM and 39.2 µM
TGI (DU-145 prostate): 3.21 µM and 24.3 µM
GI50 (NCI-H226 lung): 1.76 µM
TGI (NCI-H226 lung): 13.9 µM and 7.4 µM
GI50 (MALME-3M melanoma): 13.2 µM
TGI (MALME-3M melanoma): 50 µM and 41.2 µM
GI50 (RXF 393 renal): 4.92 µM
TGI (RXF 393 renal): 20.8 µM and 13.1 µM
GI50 (A549 NSCLC): 7.43 µM
TGI (A549 NSCLC): 50 µM and 18.8 µM
GI50 (HCC-2998 colon): 2.52 µM
TGI (HCC-2998 colon): 10.4 µM and 26.1 µM
TGI (SW-620 colon): 50 µM and > 100 µM
TGI (HL-60(TB) leukemia): 5.99 µM

COc1ccc(OC)c(/C=C/C(=O)N/N=C/c2ccc(Cl)cc2)c1
GI50 (MDA-MB-231 breast): 0.531 µM
TGI (MDA-MB-231 breast): > 100 µM
GI50 (SK-MEL-2 melanoma): 1.06 µM
TGI (SK-MEL-2 melanoma): > 100 µM
GI50 (DU-145 prostate): 0.18 µM
TGI (DU-145 prostate): > 29 µM
GI50 (NCI-H226 lung): 0.909 µM
TGI (NCI-H226 lung): > 100 µM
GI50 (RXF 393 renal): 0.0363 µM
TGI (RXF 393 renal): 0.268 µM
GI50 (A549 NSCLC): 0.242 µM
TGI (A549 NSCLC): > 100 µM
GI50 (HCC-2998 colon): 0.0831 µM
TGI (HCC-2998 colon): 0.653 µM
GI50 (SW-620 colon): 0.0577 µM
TGI (SW-620 colon): > 100 µM
GI50 (HL-60(TB) leukemia): 0.0785 µM
TGI (HL-60(TB) leukemia): 0.483 µM

CCCCN=C(N)c1ccc(OCCSCCOc2ccc(C(N)=NCCCC)cc2)cc1
GI50 (MDA-MB-231 breast): 16.9 µM
TGI (MDA-MB-231 breast): > 100 µM
GI50 (SK-MEL-2 melanoma): 5.36 µM
TGI (SK-MEL-2 melanoma): 21.9 µM
GI50 (DU-145 prostate): 10.7 µM
TGI (DU-145 prostate): > 100 µM
GI50 (NCI-H226 lung): 65.4 µM
TGI (NCI-H226 lung): > 100 µM
GI50 (MALME-3M melanoma): 2.97 µM
TGI (MALME-3M melanoma): 26.4 µM
GI50 (RXF 393 renal): 43.2 µM
TGI (RXF 393 renal): > 100 µM
GI50 (A549 NSCLC): 4.47 µM
TGI (A549 NSCLC): > 100 µM
GI50 (HCC-2998 colon): 5.87 µM
TGI (HCC-2998 colon): > 100 µM
GI50 (SW-620 colon): 10.2 µM
TGI (SW-620 colon): > 100 µM
GI50 (HL-60(TB) leukemia): 5.97 µM
TGI (HL-60(TB) leukemia): 30 µM

COc1ccc2c(c1)C=C([N+](=O)[O-])C(C1OC(C)(C)OC1C1COC(C)(C)O1)O2 (stereo not drawn)
TGI (MDA-MB-231 breast): 6.6 µM
TGI (SK-MEL-2 melanoma): 4.36 µM
TGI (DU-145 prostate): 29.5 µM
TGI (NCI-H226 lung): 21.6 µM
TGI (MALME-3M melanoma): 6.15 µM
TGI (RXF 393 renal): 8.7 µM
TGI (A549 NSCLC): 41.9 µM
TGI (HCC-2998 colon): 27.7 µM
TGI (SW-620 colon): 6.81 µM
TGI (HL-60(TB) leukemia): 5.49 µM

CC1CN1CC(O)C(O)CN1CC1C (stereo not drawn)
GI50 (MDA-MB-231 breast): 13.9 µM
TGI (MDA-MB-231 breast): 45.3 µM
GI50 (SK-MEL-2 melanoma): 8.58 µM
TGI (SK-MEL-2 melanoma): > 64.2 µM
GI50 (DU-145 prostate): 0.48 µM
TGI (DU-145 prostate): 9.28 µM
GI50 (NCI-H226 lung): 5.23 µM
TGI (NCI-H226 lung): 50.1 µM
GI50 (MALME-3M melanoma): 2.13 µM
TGI (MALME-3M melanoma): 13.7 µM
GI50 (RXF 393 renal): 2.04 µM
TGI (RXF 393 renal): 8.77 µM
GI50 (A549 NSCLC): 2.08 µM
TGI (A549 NSCLC): 33 µM
GI50 (HCC-2998 colon): 6.21 µM
TGI (HCC-2998 colon): 23.4 µM
GI50 (SW-620 colon): 2.47 µM
TGI (SW-620 colon): > 62 µM
GI50 (HL-60(TB) leukemia): 0.305 µM
TGI (HL-60(TB) leukemia): 20.1 µM

NCCCC[C@@H]1NC(=O)[C@H]2CCCN2C(=O)[C@H](Cc2ccccc2)NC(=O)[C@H](Cc2ccccc2)CNC1=O
GI50 (MDA-MB-231 breast): > 100 µM
TGI (MDA-MB-231 breast): > 100 µM
GI50 (SK-MEL-2 melanoma): > 100 µM
TGI (SK-MEL-2 melanoma): > 100 µM
GI50 (DU-145 prostate): > 100 µM
TGI (DU-145 prostate): > 100 µM
GI50 (NCI-H226 lung): > 100 µM
TGI (NCI-H226 lung): > 100 µM
GI50 (MALME-3M melanoma): > 100 µM
TGI (MALME-3M melanoma): > 100 µM
GI50 (RXF 393 renal): > 100 µM
TGI (RXF 393 renal): > 100 µM
GI50 (A549 NSCLC): > 100 µM
TGI (A549 NSCLC): > 100 µM
GI50 (HCC-2998 colon): > 100 µM
TGI (HCC-2998 colon): > 100 µM
GI50 (SW-620 colon): > 100 µM
TGI (SW-620 colon): > 100 µM
GI50 (HL-60(TB) leukemia): > 100 µM
TGI (HL-60(TB) leukemia): > 100 µM

C[N+](C)(C)CC1CCCC(C[N+](C)(C)C)C1=O (stereo not drawn)
TGI (MDA-MB-231 breast): 3.58 µM
TGI (SK-MEL-2 melanoma): 3.29 µM
TGI (DU-145 prostate): 16.7 µM
TGI (NCI-H226 lung): 31.4 µM
TGI (MALME-3M melanoma): 0.487 µM
TGI (RXF 393 renal): 3.18 µM
TGI (A549 NSCLC): 40.6 µM
TGI (HCC-2998 colon): 8.63 µM
TGI (HL-60(TB) leukemia): 2.22 µM
